Results published in paper PMC5011342, “A high throughput drug screening assay to identify compounds that promote oligodendrocyte differentiation using acutely dissociated and purified oligodendrocyte precursor cells” (BMC Research Notes, 2016).
pEC50: −log10 of the molar value. Where two headings read alike, the source gives them in different places.

How the values were obtained:
[1] = test system: acutely dissociated and purified rat OPCs; test: Acute OL differentiation assay (MBP expression/cell, immunofluorescent image quantification); format: cell-based; conditions: for activation at 2 µM / activation at 10 µM / activation at 0.4 µM / activation at 0.08 µM / pEC50: Rattus norvegicus; for hit in OL differentiation assay, MRF-TMC: ● = confirmed hit in this paper's assay; for activation at 0.08 µM: test compound at 0.08 uM, read-out: 0.08 uM (% Quet); for pEC50: average EC50 for induction of OL differentiation from independent biological replicates, eight concentrations
How it was run: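 This acute differentiation assay used purified rat OPCs from postnatal day 6–7 pups, seeded into PDL/laminin-coated 96-well plates in differentiation medium lacking PDGF and FGF. Compounds were applied in quadruplicate after a 1–2 h preincubation at 37 °C, 10 % CO2, with 0.1 % DMSO negative and 40 ng/ml T3 positive controls in eight wells. After fixation on DIV4, anti-MBP immunofluorescence images yielded MBP expression/cell.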

expanded OPCs = test: cells; conditions: for viability at 0.1 µM / viability at 1 µM / viability at 10 µM: Rattus norvegicus, 72 h
How it was run: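 Toxicity screen: compounds added at 0.1, 1 and 10 µM to PDGF-AA-expanded OPCs in 96-well plates, 3-day incubation at 37 °C, 10% CO2, then alamarBlue 1:10 for 4 h with fluorescence readout. Results set screening doses of 10/2, 2/0.4 or 0.4/0.08 µM.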

[2] = test compound at 2 uM, NCC library screen, sheet "All OLga data", relative to quetiapine, read-out: 2 uM (% Quet)
[3] = test compound at 10 uM, NCC library screen, sheet "All OLga data", relative to quetiapine, read-out: 10 uM (% Quet)
[4] = read-out: 0.1 µM (% DMSO), alamarBlue viability, NCC library compound at 0.1 µM, sheet "All Tox data"
[5] = read-out: 1 µM (% DMSO), alamarBlue viability, NCC library compound at 1 µM, sheet "All Tox data"
[6] = read-out: 10 µM (% DMSO), alamarBlue viability, NCC library compound at 10 µM, sheet "All Tox data"
[7] = 2 uM test compound, relative to quetiapine, sheet "All OLga data", read-out: OL differentiation, 2 uM (% Quet)
[8] = 10 uM test compound, relative to quetiapine, sheet "All OLga data", read-out: OL differentiation, 10 uM (% Quet)
[9] = read-out: 0.1 µM (% DMSO), alamarBlue viability of expanded OPCs, compound at 0.1 µM, sheet All Tox data
[10] = read-out: 1 µM (% DMSO), alamarBlue viability of expanded OPCs, compound at 1 µM, sheet All Tox data
[11] = read-out: 10 µM (% DMSO), alamarBlue viability of expanded OPCs, compound at 10 µM, sheet All Tox data
[12] = 0.4 uM test compound, relative to quetiapine, sheet "All OLga data", read-out: OL differentiation, 0.4 uM (% Quet)
[13] = test compound at 0.4 uM, NCC library screen, sheet "All OLga data", relative to quetiapine, read-out: 0.4 uM (% Quet)
[14] = alamarBlue viability of expanded OPCs, compound at 0.1 µM, relative to DMSO control
[15] = alamarBlue viability of expanded OPCs, compound at 1 µM, relative to DMSO control
[16] = alamarBlue viability of expanded OPCs, compound at 10 µM, relative to DMSO control
[17] = test compound at 0.4 uM, MBP expression relative to quetiapine, NCC library screen, sheet "All OLga data", read-out: 0.4 uM (% Quet)
[18] = test compound at 2 uM, MBP expression relative to quetiapine, NCC library screen, sheet "All OLga data", read-out: 2 uM (% Quet)
[19] = test compound at 10 uM, MBP expression relative to quetiapine, NCC library screen, sheet "All OLga data", read-out: 10 uM (% Quet)

| Compound | activation at 2 µM [1, 2] [%] | activation at 10 µM [1, 3] [%] | viability at 0.1 µM (expanded OPCs; [4]) [%] | viability at 1 µM (expanded OPCs; [5]) [%] | viability at 10 µM (expanded OPCs; [6]) [%] | 0.1 µM (% DMSO) (expanded OPCs; [14]) | 1 µM (% DMSO) (expanded OPCs; [15]) | also measured |
| --- | --- | --- | --- | --- | --- | --- | --- | --- |
| CCCN(CCC)S(=O)(=O)c1ccc(C(=O)O)cc1 [Probenecid] | 1.7 | -6.4 | 89.6 | 94.3 | 91.5 | – | – | – |
| CCN(CC)CCNC(=O)c1ccc(N)cc1 [Procainamide] | 0.4 | 19.7 | 106 | 111 | 120 | – | – | – |
| CCN(CC)CCOC(=O)c1ccc(N)cc1 [Procaine] | -5.2 | 7.7 | 121 | 145 | 146 | – | – | – |
| CNNCc1ccc(C(=O)NC(C)C)cc1 [Procarbazine] | – | – | – | – | – | – | – | activation at 2 µM [1, 7]: 0.13%; activation at 10 µM [1, 8]: -31.6%; viability at 0.1 µM (expanded OPCs; [9]): 82.3%; viability at 1 µM (expanded OPCs; [10]): 87.2%; viability at 10 µM (expanded OPCs; [11]): 96.6% |
| CN1CCN(CCCN2c3ccccc3Sc3ccc(Cl)cc32)CC1 [Prochlorperazine, reference compound] | – | – | – | – | – | – | – | activation at 0.4 µM [1, 12]: 110%; activation at 2 µM [1, 7]: -12.5%; hit in OL differentiation assay, MRF-TMC [1]: ●; viability at 0.1 µM (expanded OPCs; [9]): 122%; viability at 1 µM (expanded OPCs; [10]): 107%; viability at 10 µM (expanded OPCs; [11]): 12.6% |
| OC(CCN1CCCC1)(c1ccccc1)C1CCCCC1 (stereo not drawn) [Procyclidine] | 11.1 | – | 86.1 | 70.8 | 56.9 | – | – | activation at 0.4 µM [1, 13]: 12% |
| CC(=O)[C@H]1CC[C@H]2[C@@H]3CCC4=CC(=O)CC[C@]4(C)[C@H]3CC[C@]12C [Progesterone] | – | – | – | – | – | – | – | activation at 2 µM [1, 7]: 21.9%; activation at 10 µM [1, 8]: 23.3%; viability at 0.1 µM (expanded OPCs; [9]): 88.2%; viability at 1 µM (expanded OPCs; [10]): 102%; viability at 10 µM (expanded OPCs; [11]): 113% |
| CC(CN1c2ccccc2Sc2ccccc21)N(C)C (stereo not drawn) [Promethazine] | – | – | – | – | – | 68.4 | 33.2 | activation at 0.08 µM ([1]; NCC library screen, sheet "All OLga data", relative to quetiapine): -26.4%; activation at 0.4 µM [1, 13]: -33.6%; 10 µM (% DMSO) (expanded OPCs; [16]): 19.9 % DMSO |
| CCCNCC(O)COc1ccccc1C(=O)CCc1ccccc1 (stereo not drawn) [Propafenone] | -3.3 | – | – | – | – | 76.8 | 58.7 | activation at 0.4 µM [1, 13]: -15.2%; 10 µM (% DMSO) (expanded OPCs; [16]): 29.5 % DMSO |
| CC(C)[N+](C)(CCOC(=O)C1c2ccccc2Oc2ccccc21)C(C)C [Propantheline] | 36.4 | 90.8 | 91.7 | 112 | 148 | – | – | – |
| CC(C)c1cccc(C(C)C)c1O [Propofol] | – | – | – | – | – | – | – | activation at 2 µM ([1]; read-out: 2 uM (% Quet)): -0.9%; activation at 10 µM ([1]; read-out: 10 uM (% Quet)): 0.36%; 0.1 µM (% DMSO) (expanded OPCs; rat): 93.1 % DMSO; 1 µM (% DMSO) (expanded OPCs; rat): 85.9 % DMSO; 10 µM (% DMSO) (expanded OPCs; rat): 87.2 % DMSO |
| CC(C)NCC(O)COc1cccc2ccccc12 (stereo not drawn) [Propranolol] | – | – | – | – | – | 95.6 | 79.5 | activation at 0.4 µM [1, 17]: 0.38%; activation at 2 µM [1, 18]: -14.5%; 10 µM (% DMSO) (expanded OPCs; [16]): 32.7 % DMSO |
| CCCc1cc(=O)[nH]c(=S)[nH]1 [Propylthiouracil] | -0.9 | 11.7 | – | – | – | 90.3 | 95.9 | 10 µM (% DMSO) (expanded OPCs; [16]): 90.8 % DMSO |
| CCCOc1ccc(C(=O)OCCN(CC)CC)cc1N [Proxymetacaine, reference compound] | 75.8 | 97.5 | 128 | 179 | 163 | – | – | pEC50 [1]: 6.00; hit in OL differentiation assay, MRF-TMC [1]: ● |
| COc1cc(/C=C/c2ccc(O)cc2)cc(OC)c1 [Pterostilbene] | – | – | – | – | – | – | – | activation at 0.4 µM [1, 12]: -5.7%; activation at 2 µM [1, 7]: -7.7%; viability at 0.1 µM (expanded OPCs; [9]): 101%; viability at 1 µM (expanded OPCs; [10]): 62.5%; viability at 10 µM (expanded OPCs; [11]): 27.3% |
| NC(=O)c1cnccn1 [Pyrazinamide] | -8.1 | -1.1 | – | – | – | 89.2 | 94.5 | 10 µM (% DMSO) (expanded OPCs; [16]): 87.7 % DMSO |
| CN(C)C(=O)Oc1ccc[n+](C)c1 [Pyridostigmine Bromide] | -0.46 | 21.5 | – | – | – | 92.2 | 86.7 | 10 µM (% DMSO) (expanded OPCs; [16]): 84.4 % DMSO |
| CCc1nc(N)nc(N)c1-c1ccc(Cl)cc1 [Pyrimethamine] | -12.3 | -35.3 | 100 | 99.6 | 66.5 | – | – | – |
| OCCOCCN1CCN(C2=Nc3ccccc3Sc3ccccc32)CC1 [Quetiapine hemifumarate] | 130 | 87.7 | 118 | 149 | 117 | – | – | – |
| CCOC(=O)[C@H](CCc1ccccc1)N[C@@H](C)C(=O)N1Cc2ccccc2C[C@H]1C(=O)O [Quinapril] | – | – | – | – | – | 95.3 | 90.0 | activation at 2 µM [1, 18]: 2.2%; activation at 10 µM [1, 19]: -12.2%; 10 µM (% DMSO) (expanded OPCs; [16]): 85.6 % DMSO |
| C=C[C@H]1C[N@@]2CC[C@H]1C[C@H]2[C@H](O)c1ccnc2ccc(OC)cc12 [Quinine] | – | – | – | – | – | 93.4 | 87.0 | activation at 2 µM [1, 18]: -22.9%; activation at 10 µM [1, 19]: -65.5% |
| CN1CCc2cc(Cl)c(O)cc2[C@@H](c2ccccc2)C1 [R(+) SCH 23390] | – | – | – | – | – | – | – | 0.4 uM (% Quet) ([1]; test compound at 0.4 uM, NCC library screen, sheet "All OLga data", relative to quetiapine): -16.1 % Quet; 2 uM (% Quet) ([1]; test compound at 2 uM, NCC library screen, sheet "All OLga data", relative to quetiapine): -24.3 % Quet; 0.1 µM (% DMSO) (expanded OPCs; alamarBlue viability, NCC library compound at 0.1 µM, sheet "All Tox data"): 84.2 % DMSO; 1 µM (% DMSO) (expanded OPCs; alamarBlue viability, NCC library compound at 1 µM, sheet "All Tox data"): 78.8 % DMSO; 10 µM (% DMSO) (expanded OPCs; alamarBlue viability, NCC library compound at 10 µM, sheet "All Tox data"): 64.1 % DMSO |
| COc1ccc2[nH]cc(C3=CCNCC3)c2c1 [RU-24969] | -15.5 | – | 83.2 | 62.4 | 36.7 | – | – | activation at 0.4 µM [1, 13]: -5.3% |
| COCCCOc1ccnc(C[S+]([O-])c2nc3ccccc3[nH]2)c1C (stereo not drawn) [Rabeprazole] | -8.5 | -69.9 | 101 | 85.1 | 76.7 | – | – | – |
| CC(=O)SCC(Cc1ccccc1)C(=O)NCC(=O)OCc1ccccc1 (stereo not drawn) [Racecadotril] | – | – | – | – | – | – | – | activation at 2 µM [1, 7]: 23%; activation at 10 µM [1, 8]: 56.4%; viability at 0.1 µM (expanded OPCs; [9]): 87.4%; viability at 1 µM (expanded OPCs; [10]): 92.9%; viability at 10 µM (expanded OPCs; [11]): 77.6% |
| CCN1CCC[C@H]1CNC(=O)c1c(O)c(Cl)cc(Cl)c1OC [Raclopride] | – | – | – | – | – | – | – | activation at 2 µM [1, 7]: 12.4%; activation at 10 µM [1, 8]: 43.4%; viability at 0.1 µM (expanded OPCs; [9]): 93.2%; viability at 1 µM (expanded OPCs; [10]): 92.8%; viability at 10 µM (expanded OPCs; [11]): 89.9% |
| O=C(c1ccc(OCCN2CCCCC2)cc1)c1c(-c2ccc(O)cc2)sc2cc(O)ccc12 [Raloxifene, reference compound] | – | – | – | – | – | 161.1 | 38.6 | activation at 0.08 µM ([1]; MBP expression relative to quetiapine, NCC library screen, sheet "All OLga data"): 91.9%; activation at 0.4 µM [1, 17]: -62.1%; pEC50 [1]: 7.00; hit in OL differentiation assay, MRF-TMC [1]: ●; 10 µM (% DMSO) (expanded OPCs; [16]): 7.7 % DMSO |
| Cc1nc2ccc(CN(C)c3ccc(C(=O)N[C@@H](CCC(=O)O)C(=O)O)s3)cc2c(=O)[nH]1 [Raltitrexed] | -13.8 | -1.3 | 71.4 | 63.5 | 59.6 | – | – | – |
